In the experiment the target is T1, ALK (baculovirus expressed human ALK kinase domain F1098-K1410) (Homo sapiens, UniProt Q9UM73).
T1 construct: human ALK kinase domain F1098-K1410; made in house
In words: biochemical. The note with it: 1 μM ATP, 4 μM poly-AEKY, 12 nM ALK, 2 hours at ambient temperature; read-out: ALK IC50. The gist of the method:
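Baculovirus-expressed human ALK kinase domain (F1098-K1410) was run in a luciferase-coupled chemiluminescent format, with ATP near its KM. After 2 h at ambient temperature, remaining ATP was read by luciferase-luciferin luminescence. IC50 came from 10-point dose-response curves fitted to a four-parameter equation with Hill slope.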

Some results are limits rather than exact numbers.

As usually defined, the IC50 is the concentration at which inhibition is half-maximal.

T1 sequence (Q9UM73 1098-1410): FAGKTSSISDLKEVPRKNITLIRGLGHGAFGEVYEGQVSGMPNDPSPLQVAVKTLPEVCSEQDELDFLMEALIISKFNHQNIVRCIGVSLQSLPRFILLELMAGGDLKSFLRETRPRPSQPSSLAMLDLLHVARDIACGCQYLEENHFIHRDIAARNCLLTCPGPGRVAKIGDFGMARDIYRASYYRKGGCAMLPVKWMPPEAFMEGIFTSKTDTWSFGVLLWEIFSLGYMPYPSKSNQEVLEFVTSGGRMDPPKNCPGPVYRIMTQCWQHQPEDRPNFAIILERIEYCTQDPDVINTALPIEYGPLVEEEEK

For the compound `COc1ccccc1CNC(=O)c1csc(CNC(=O)COc2ccc(I)cc2)n1` [Entry 82, 2-[({[(4-iodophenyl)oxy]acetyl}amino)methyl]-N-{[2-(methyloxy)phenyl]methyl}-1,3-thiazole-4-carboxamide], the IC50 was in the range of 50 to 500 nM. As for `O=C(Cc1ccc2ccccc2c1)NCc1nc(C(=O)NCCc2cccc(Cl)c2)cs1` [Entry 117, N-[2-(3-chlorophenyl)ethyl]-2-{[(naphthalen-2-ylacetyl)amino]methyl}-1,3-thiazole-4-carboxamide], the figure is 50 to 500 nM; as for `O=C(COc1ccc(OC(F)(F)F)cc1)NCc1nc(C(=O)NCc2ccccc2)cs1` [Entry 194, N-(phenylmethyl)-2-({[({4-[(trifluoromethyl)oxy]phenyl}oxy)acetyl]amino}methyl)-1,3-thiazole-4-carboxamide], 50 to 500 nM. In the case of `O=C(COc1ccc(Cl)cc1)NCc1nc(C(=O)NCCc2ccccc2F)cs1` [Entry 215, 2-[({[(4-chlorophenyl)oxy]acetyl}amino)methyl]-N-[2-(2-fluorophenyl)ethyl]-1,3-thiazole-4-carboxamide], the half-inhibitory concentration (IC50) fell in the range of 50 to 500 nM.

With `O=C(COc1ccc(OC(F)(F)F)cc1)NCc1nc(C(=O)N2CCN(c3c(Cl)cncc3Cl)CC2)cs1` [Entry 66, N-[(4-{[4-(3,5-dichloropyridin-4-yl)piperazin-1-yl]carbonyl}-1,3-thiazol-2-yl)methyl]-2-({4-[(trifluoromethyl)oxy]phenyl}oxy)acetamide], the half-inhibitory concentration (IC50) was 50 to 500 nM. Under `NCc1nc(C(=O)NCCc2ccccc2F)cs1` [Entry 305, 2-(aminomethyl)-N-[2-(2-fluorophenyl)ethyl]-1,3-thiazole-4-carboxamide] stands greater than 2000 nM; under `COc1cccc(CCNC(=O)c2csc(CNC(=O)COc3ccc(OC(F)(F)F)cc3)n2)c1OC` [Entry 53, N-{2-[2,3-bis(methyloxy)phenyl]ethyl}-2-({[({4-[(trifluoromethyl)oxy]phenyl}oxy)acetyl]amino}methyl)-1,3-thiazole-4-carboxamide], 50 to 500 nM.

As to `O=C(COc1ccc(OC(F)(F)F)cc1)NCc1nc(C(=O)NCCc2ccccc2F)co1` [Entry 143, N-[2-(2-fluorophenyl)ethyl]-2-({[({4-[(trifluoromethyl)oxy]phenyl}oxy)acetyl]amino}methyl)-1,3-oxazole-4-carboxamide], the IC50 was in the range of 50 to 500 nM. Under `O=C(COc1ccc(OC(F)(F)F)cc1)NCc1nc(C(=O)NCCc2ccc(Br)cc2)cs1` [Entry 90, N-[2-(4-bromophenyl)ethyl]-2-({[({4-[(trifluoromethyl)oxy]phenyl}oxy)acetyl]amino}methyl)-1,3-thiazole-4-carboxamide] stands 50 to 500 nM. As for `CCC(C)CNC(=O)c1csc(CNC(=O)COc2ccc(OC(F)(F)F)cc2)n1` (stereo not shown) [Entry 210, N-(2-methylbutyl)-2-({[({4-[(trifluoromethyl)oxy]phenyl}oxy)acetyl]amino}methyl)-1,3-thiazole-4-carboxamide], the figure is 50 to 500 nM. Take `O=C(COc1ccc(OC(F)(F)F)cc1)NCc1nc(C(=O)NCCC(c2ccccc2)c2ccccc2)cs1` [Entry 260, N-(3,3-diphenylpropyl)-2-({[({4-[(trifluoromethyl)oxy]phenyl}oxy)acetyl]amino}methyl)-1,3-thiazole-4-carboxamide]: the half-inhibitory concentration (IC50) was in the range of 500 to 2000 nM. Under `CCOC(=O)N1CCC(NC(=O)c2csc(CNC(=O)COc3ccc(OC(F)(F)F)cc3)n2)CC1` [Entry 283, ethyl 4-({[2-({[({4-[(trifluoromethyl)oxy]phenyl}oxy)acetyl]amino}methyl)-1,3-thiazol-4-yl]carbonyl}amino)piperidine-1-carboxylate] stands 500 to 2000 nM; under `O=C(COc1ccc(OC(F)(F)F)cc1)NCc1nc(C(=O)NCCc2ccccc2)co1` [Entry 242, N-(2-phenylethyl)-2-({[({4-[(trifluoromethyl)oxy]phenyl}oxy)acetyl]amino}methyl)-1,3-oxazole-4-carboxamide], 500 to 2000 nM; under `CCCCCCC(C)NC(=O)c1csc(CNC(=O)COc2ccc(OC(F)(F)F)cc2)n1` (stereo not shown) [Entry 220, N-(1-methylheptyl)-2-({[({4-[(trifluoromethyl)oxy]phenyl}oxy)acetyl]amino}methyl)-1,3-thiazole-4-carboxamide], 500 to 2000 nM.

On to `COc1ccccc1CNC(=O)c1csc(CNC(=O)Cc2ccc3ccccc3c2)n1` [Entry 229, N-{[2-(methyloxy)phenyl]methyl}-2-{[(naphthalen-2-ylacetyl)amino]methyl}-1,3-thiazole-4-carboxamide], for which the concentration for half-maximal inhibition (IC50) fell in the range of 500 to 2000 nM. Under `CC(C)CCCCCCNC(=O)c1csc(CNC(=O)COc2ccc(OC(F)(F)F)cc2)n1` [Entry 189, N-(7-methyloctyl)-2-({[({4-[(trifluoromethyl)oxy]phenyl}oxy)acetyl]amino}methyl)-1,3-thiazole-4-carboxamide] stands 50 to 500 nM; under `CC(=O)NCCNC(=O)c1csc(CNC(=O)COc2ccc(OC(F)(F)F)cc2)n1` [Entry 281, N-[2-(acetylamino)ethyl]-2-({[({4-[(trifluoromethyl)oxy]phenyl}oxy)acetyl]amino}methyl)-1,3-thiazole-4-carboxamide], 500 to 2000 nM. As for `CN(C(=O)OC(C)(C)C)C1CCN(C(=O)c2csc(CNC(=O)COc3ccc(OC(F)(F)F)cc3)n2)C1` (stereo not shown) [Entry 295, 1,1-dimethylethyl methyl(1-{[2-({[({4-[(trifluoromethyl)oxy]phenyl}oxy)acetyl]amino}methyl)-1,3-thiazol-4-yl]carbonyl}pyrrolidin-3-yl)carbamate], the figure is 500 to 2000 nM; as for `O=C(COc1ccc(OC(F)(F)F)cc1)NCc1nc(C(=O)NCCc2ccncc2)cs1` [Entry 48, N-(2-pyridin-4-ylethyl)-2-({[({4-[(trifluoromethyl)oxy]phenyl}oxy)acetyl]amino}methyl)-1,3-thiazole-4-carboxamide], 50 to 500 nM. Turning to `O=C(COc1ccc(OC(F)(F)F)cc1)NCc1nc(C(=O)NCCc2cccnc2)cs1` [Entry 51, N-(2-pyridin-3-ylethyl)-2-({[({4-[(trifluoromethyl)oxy]phenyl}oxy)acetyl]amino}methyl)-1,3-thiazole-4-carboxamide], the IC50 was 50 to 500 nM. Take `O=C(COc1ccc(OC(F)(F)F)cc1)NCc1nc(C(=O)NCc2ccc(F)cc2C(F)(F)F)cs1` [Entry 244, N-{[4-fluoro-2-(trifluoromethyl)phenyl]methyl}-2-({[({4-[(trifluoromethyl)oxy]phenyl}oxy)acetyl]amino}methyl)-1,3-thiazole-4-carboxamide]: the IC50 was in the range of 500 to 2000 nM. Under `CN(C)c1ccc(CNC(=O)c2csc(CNC(=O)COc3ccc(OC(F)(F)F)cc3)n2)cc1` [Entry 237, N-{[4-(dimethylamino)phenyl]methyl}-2-({[({4-[(trifluoromethyl)oxy]phenyl}oxy)acetyl]amino}methyl)-1,3-thiazole-4-carboxamide] stands 500 to 2000 nM. Under `Cc1ccc(CCNC(=O)c2csc(CNC(=O)COc3ccc(OC(F)(F)F)cc3)n2)c(C)c1` [Entry 49, N-[2-(2,4-dimethylphenyl)ethyl]-2-({[({4-[(trifluoromethyl)oxy]phenyl}oxy)acetyl]amino}methyl)-1,3-thiazole-4-carboxamide] stands 50 to 500 nM; under `O=C(COc1ccc(OC(F)(F)F)cc1)NCc1nc(C(=O)NCc2cccc(C(F)(F)F)c2)cs1` [Entry 156, 2-({[({4-[(trifluoromethyl)oxy]phenyl}oxy)acetyl]amino}methyl)-N-{[3-(trifluoromethyl)phenyl]methyl}-1,3-thiazole-4-carboxamide], 50 to 500 nM; under `O=C(COc1ccc(OC(F)(F)F)cc1)NCc1nc(C(=O)NCC2CCCO2)cs1` (stereo not shown) [Entry 265, N-(tetrahydrofuran-2-ylmethyl)-2-({[({4-[(trifluoromethyl)oxy]phenyl}oxy)acetyl]amino}methyl)-1,3-thiazole-4-carboxamide], 500 to 2000 nM. As for `O=C(COc1ccc(OC(F)(F)F)cc1)NCc1nc(C(=O)NCCCN2CCCC2=O)cs1` [Entry 286, N-[3-(2-oxopyrrolidin-1-yl)propyl]-2-({[({4-[(trifluoromethyl)oxy]phenyl}oxy)acetyl]amino}methyl)-1,3-thiazole-4-carboxamide], the IC50 was in the range of 500 to 2000 nM. Take `O=C(COc1ccc(OC(F)(F)F)cc1)NCc1nc(C(=O)NC2CCCCC2)cs1` [Entry 209, N-cyclohexyl-2-({[({4-[(trifluoromethyl)oxy]phenyl}oxy)acetyl]amino}methyl)-1,3-thiazole-4-carboxamide]: the IC50 lay in the range of 50 to 500 nM. Turning to `CCC1COC(C)(CCC(C)C)N1C(=O)c1csc(CNC(=O)COc2ccc(OC(F)(F)F)cc2)n1` (stereo not shown) [Entry 310, N-[(4-{[4-ethyl-2-methyl-2-(3-methylbutyl)-1,3-oxazolidin-3-yl]carbonyl}-1,3-thiazol-2-yl)methyl]-2-({4-[(trifluoromethyl)oxy]phenyl}oxy)acetamide], the IC50 was greater than 2000 nM. Under `O=C(COc1ccc(OC(F)(F)F)cc1)NCc1nc(C(=O)NCc2ccc(F)cc2F)cs1` [Entry 258, N-[(2,4-difluorophenyl)methyl]-2-({[({4-[(trifluoromethyl)oxy]phenyl}oxy)acetyl]amino}methyl)-1,3-thiazole-4-carboxamide] stands 500 to 2000 nM. As for `O=C(COc1ccc(OC(F)(F)F)cc1)NCc1nc(C(=O)NC23C[C@H]4C[C@@H](C2)C[C@@H](C3)C4)cs1` [Entry 23, N-tricyclo[3.3.1.1~3,7~]dec-1-yl-2-({[({4-[(trifluoromethyl)oxy]phenyl}oxy)acetyl]amino}methyl)-1,3-thiazole-4-carboxamide], the figure is less than 50 nM. As for `COc1ccccc1CNC(=O)c1csc(CNC(=O)Nc2ccc(C(C)C)cc2)n1` [Entry 29, 2-{[({[4-(1-methylethyl)phenyl]amino}carbonyl)amino]methyl}-N-{[2-(methyloxy)phenyl]methyl}-1,3-thiazole-4-carboxamide], the figure is 50 to 500 nM.

For the origin of these results see patent US7973061B2, “Anaplastic lymphoma kinase modulators and methods of use” (Exelixis, Inc., priority 2004, dated 2011).
